In ChEMBL document CHEMBL1201862, “PubChem BioAssay data set” (2004) one finds IC50 data, which are given here for two compounds.

The structures appear in SMILES notation. Activity calls are given as the source filed them. Rule as the data show it: actives have a measured IC50 and inactives only a lower limit.

In this assay the target is Envelope glycoprotein gp160 (Human immunodeficiency virus 1, UniProt Q6QLK5). The assay is described as follows: cell-free HIV fusion peptide-binding blockers – biochemical, uHTS, fluorescence dequenching, […] (AID 1986).
Sequence of Envelope glycoprotein gp160 (Q6QLK5 whole entry, the tested form may be a part): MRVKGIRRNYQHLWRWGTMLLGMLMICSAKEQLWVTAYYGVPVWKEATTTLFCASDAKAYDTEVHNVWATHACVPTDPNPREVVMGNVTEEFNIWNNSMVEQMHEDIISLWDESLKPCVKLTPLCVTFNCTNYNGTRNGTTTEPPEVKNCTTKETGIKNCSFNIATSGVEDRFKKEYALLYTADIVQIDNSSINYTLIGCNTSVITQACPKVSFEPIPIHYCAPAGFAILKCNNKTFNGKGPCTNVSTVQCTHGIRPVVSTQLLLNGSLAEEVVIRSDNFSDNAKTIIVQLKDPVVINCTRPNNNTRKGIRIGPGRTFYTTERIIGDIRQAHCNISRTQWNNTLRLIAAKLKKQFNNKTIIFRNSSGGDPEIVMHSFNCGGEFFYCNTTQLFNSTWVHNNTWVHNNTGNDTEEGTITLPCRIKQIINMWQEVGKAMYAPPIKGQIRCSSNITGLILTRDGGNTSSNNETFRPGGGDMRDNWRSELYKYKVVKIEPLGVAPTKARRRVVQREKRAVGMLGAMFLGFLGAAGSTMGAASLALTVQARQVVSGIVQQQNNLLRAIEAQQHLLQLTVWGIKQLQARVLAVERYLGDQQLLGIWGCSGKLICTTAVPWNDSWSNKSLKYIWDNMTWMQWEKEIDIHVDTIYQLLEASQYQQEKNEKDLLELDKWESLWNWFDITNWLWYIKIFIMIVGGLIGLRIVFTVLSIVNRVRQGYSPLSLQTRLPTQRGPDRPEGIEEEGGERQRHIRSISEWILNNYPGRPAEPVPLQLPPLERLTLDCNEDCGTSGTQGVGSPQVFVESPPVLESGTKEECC

Usually IC50 stands for the concentration needed to halve the response being measured. In the case of `O=C(Nc1cc(C(=O)Nc2ccccc2C(=O)O)cc(C(=O)Nc2ccccc2C(=O)O)c1)c1ccccc1`, the 50% inhibitory concentration (IC50) is 6.36 µM (active).
The figure for `COc1ccc(C(=O)Nc2ccc(/C(C)=N/NC(=O)c3ccncc3)cc2)cc1` is 15 µM (active).
